Data: patent publication US20260085067A1, “CYCLIC SULFONAMIDE RIBONUCLEOTIDE REDUCTASE (RNR) INHIBITORS AND USES THEREOF” (Boundless Bio, Inc., priority 2022, published 2026)

How the values were obtained:
RNR (RNR1:RNR2 1:1) = biological target: T1, RNR (RNR1:RNR2 1:1) (Homo sapiens, UniProt P23921); assay: RNR enzyme activity, rapid-fire mass spectrometry (RF/MS) assay; format: biochemical; settings: [RNR] 50 nM, 1:1 RNR1:RNR2; CDP 5 μM; ATP 1 mM; 37° C., 45 min; compounds screened up to 50 μM
T1 sequence (P23921 1-792): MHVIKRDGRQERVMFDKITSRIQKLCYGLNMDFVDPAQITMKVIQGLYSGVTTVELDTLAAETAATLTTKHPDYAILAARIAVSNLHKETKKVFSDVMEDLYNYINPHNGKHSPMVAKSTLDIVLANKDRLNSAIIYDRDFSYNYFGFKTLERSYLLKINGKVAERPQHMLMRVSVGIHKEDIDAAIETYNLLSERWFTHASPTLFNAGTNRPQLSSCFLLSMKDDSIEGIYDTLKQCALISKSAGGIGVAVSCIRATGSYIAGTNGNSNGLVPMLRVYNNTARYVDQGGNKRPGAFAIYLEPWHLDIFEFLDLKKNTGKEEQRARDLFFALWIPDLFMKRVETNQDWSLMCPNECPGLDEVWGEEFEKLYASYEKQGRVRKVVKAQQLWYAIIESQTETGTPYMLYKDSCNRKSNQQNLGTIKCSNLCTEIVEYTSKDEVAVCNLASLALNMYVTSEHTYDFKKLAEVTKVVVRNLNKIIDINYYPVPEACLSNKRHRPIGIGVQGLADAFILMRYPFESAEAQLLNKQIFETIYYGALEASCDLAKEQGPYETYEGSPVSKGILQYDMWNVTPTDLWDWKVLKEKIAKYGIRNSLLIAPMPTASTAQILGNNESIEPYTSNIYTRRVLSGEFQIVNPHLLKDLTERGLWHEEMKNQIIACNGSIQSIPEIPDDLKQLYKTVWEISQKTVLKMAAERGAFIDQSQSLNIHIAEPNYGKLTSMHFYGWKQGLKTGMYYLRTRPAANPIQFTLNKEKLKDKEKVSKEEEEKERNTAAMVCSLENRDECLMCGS
In short: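 Human RNR (50 nM final, RNR1:RNR2 1:1) pre-incubated 15 min at room temperature, then reacted 45 min at 37 °C with 5 μM CDP and 1 mM ATP, no NADPH. Reaction quenched with 6% HCOOH; product quantified by rapid-fire mass spectrometry.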

[1] = test system: pCHK1 (S345) in Colo320 DM cells; assay: Alphalisa assay, detection of pCHK1 (S345) in Colo320 DM cells; format: cell-based, human; settings: Homo sapiens, COLO 320DM, compound overnight (approximately 16 hours)
In short: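 Colo320 DM cells plated overnight, then exposed to compound for about 16 h at 37 °C (DMSO <0.5%). Cells lysed and phospho-CHK1 (S345) quantified by AlphaLisa SureFire with sequential 60 min acceptor and donor incubations at room temperature.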

Row | SMILES | IC50 (RNR (RNR1:RNR2 1:1)) [nM] | IC50 [1] [nM]
1 | Cc1ccc(F)c([C@@H](C)[C@@H](c2n[nH]c(=O)o2)N2CN(CCN(C)C)c3cc(Cl)ccc3S2(=O)=O)c1C [Example 38, 5-((1S,2R)-1-(6-chloro-4-(2-(dimethylamino)ethyl)-1,1-dioxido-3,4-dihydro-2H-benzo[e][1,2,4]thiadiazin-2-yl)-2-(6-fluoro-2,3-dimethylphenyl)propyl)-1,3,4-oxadiazol-2 (3H)-one] | < 20 | ≤ 1000
2 | Cc1ccc(F)c([C@H](C)[C@@H](c2n[nH]c(=O)o2)N2CN(C)c3cc(Cl)cc(C(=O)N(C)C)c3S2(=O)=O)c1C [Example 39] | 10000 to 100000 | > 50000
3 | Cc1ccc(F)c(C(C)[C@@H](c2n[nH]c(=O)o2)N2CCOc3c(ccc(Cl)c3C(C)(C)O)S2(=O)=O)c1C (stereo partly drawn) [Example 40, 5-((1S)-1-(7-chloro-6-(2-hydroxypropan-2-yl)-1,1-dioxido-3,4-dihydro-2H-benzo[b][1,4,5]oxathiazepin-2-yl)-2-(6-fluoro-2,3-dimethylphenyl)propyl)-1,3,4-oxadiazol-2 (3H)-one] | < 20 | 5000 to 10000
4 | Cc1ccc(F)c([C@@H](C)[C@@H](c2n[nH]c(=O)o2)N2COc3cc(Cl)cc(C(=O)N(C)C)c3S2(=O)=O)c1C [Example 41, 6-chloro-2-((1S,2R)-2-(6-fluoro-2,3-dimethylphenyl)-1-(5-oxo-4,5-dihydro-1,3,4-oxadiazol-2-yl)propyl)-N,N-dimethyl-2,3-dihydrobenzo[e][1,4,3]oxathiazine-8-carboxamide 1,1-dioxide] | 100 to 1000 | > 50000
5 | Cc1ccc(F)c([C@@H](C)[C@@H](c2n[nH]c(=O)o2)N2CN(C3COC3)c3cc(Cl)ccc3S2(=O)=O)c1C [Example 42, 5-((1S,2R)-1-(6-chloro-4-(oxetan-3-yl)-1,1-dioxido-3,4-dihydro-2H-benzo[e][1,2,4]thiadiazin-2-yl)-2-(6-fluoro-2,3-dimethylphenyl)propyl)-1,3,4-oxadiazol-2 (3H)-one] | < 20 | ≤ 1000
6 | COCCN1CN([C@H](c2n[nH]c(=O)o2)[C@H](C)c2c(F)ccc(C)c2C)S(=O)(=O)c2ccc(Cl)cc21 [Example 45, 5-((1S,2R)-1-(6-chloro-4-(2-methoxyethyl)-1,1-dioxido-3,4-dihydro-2H-benzo[e][1,2,4]thiadiazin-2-yl)-2-(6-fluoro-2,3-dimethylphenyl)propyl)-1,3,4-oxadiazol-2 (3H)-one] | < 20 | ≤ 1000
7 | Cc1ccc(F)c([C@@H](C)[C@@H](c2n[nH]c(=O)o2)N2CN(C(=O)C3CC3)c3cc(Cl)ccc3S2(=O)=O)c1C [Example 46, 5-((1S,2R)-1-(6-chloro-4-(cyclopropanecarbonyl)-1,1-dioxido-3,4-dihydro-2H-benzo[e][1,2,4]thiadiazin-2-yl)-2-(6-fluoro-2,3-dimethylphenyl)propyl)-1,3,4-oxadiazol-2 (3H)-one] | < 20 | ≤ 1000
8 | Cc1ccc(F)c([C@@H](C)[C@@H](c2n[nH]c(=O)o2)N2CN(C3CCN(C)CC3)c3cc(Cl)ccc3S2(=O)=O)c1C [Example 47, 5-((1S,2R)-1-(6-chloro-4-(1-methylpiperidin-4-yl)-1,1-dioxido-3,4-dihydro-2H-benzo[e][1,2,4]thiadiazin-2-yl)-2-(6-fluoro-2,3-dimethylphenyl)propyl)-1,3,4-oxadiazol-2 (3H)-one] | < 20 | 1000 to 5000
9 | Cc1ccc(F)c([C@@H](C)[C@@H](c2n[nH]c(=O)o2)N2CN(CC3CCOC3)c3cc(Cl)ccc3S2(=O)=O)c1C (stereo partly drawn) [Example 49, 5-((1S,2R)-1-(6-chloro-1,1-dioxido-4-((tetrahydrofuran-3-yl)methyl)-3,4-dihydro-2H-benzo[e][1,2,4]thiadiazin-2-yl)-2-(6-fluoro-2,3-dimethylphenyl)propyl)-1,3,4-oxadiazol-2 (3H)-one] | < 20 | ≤ 1000
10 | Cc1ccc(F)c([C@@H](C)[C@@H](c2n[nH]c(=O)o2)N2CN(C3CCCN(C)C3)c3cc(Cl)ccc3S2(=O)=O)c1C (stereo partly drawn) [Example 51, 5-((1S,2R)-1-(6-chloro-4-(1-methylpiperidin-3-yl)-1,1-dioxido-3,4-dihydro-2H-benzo[e][1,2,4]thiadiazin-2-yl)-2-(6-fluoro-2,3-dimethylphenyl)propyl)-1,3,4-oxadiazol-2 (3H)-one] | < 20 | ≤ 1000
11 | Cc1ccc(F)c([C@@H](C)[C@@H](c2n[nH]c(=O)o2)N2CN(C[C@H]3CCCO3)c3cc(Cl)ccc3S2(=O)=O)c1C [Example 52, 5-((1S,2R)-1-(6-chloro-1,1-dioxido-4-(((R)-tetrahydrofuran-2-yl)methyl)-3,4-dihydro-2H-benzo[e][1,2,4]thiadiazin-2-yl)-2-(6-fluoro-2,3-dimethylphenyl)propyl)-1,3,4-oxadiazol-2 (3H)-one] | < 20 | ≤ 1000
12 | Cc1ccc(F)c([C@@H](C)[C@@H](c2n[nH]c(=O)o2)N2CCOc3c(ccc(Cl)c3CN(C)C)S2(=O)=O)c1C [Example 55, 5-((1S,2R)-1-(7-chloro-6-((dimethylamino)methyl)-1,1-dioxido-3,4-dihydro-2H-benzo[b][1,4,5]oxathiazepin-2-yl)-2-(6-fluoro-2,3-dimethylphenyl)propyl)-1,3,4-oxadiazol-2 (3H)-one] | < 20 | 1000 to 5000
13 | CC(=O)N1CN([C@H](c2n[nH]c(=O)o2)[C@H](C)c2c(F)ccc(C)c2C)S(=O)(=O)c2ccc(Cl)cc21 [Example 56, 5-((1S,2R)-1-(4-acetyl-6-chloro-1,1-dioxido-3,4-dihydro-2H-benzo[e][1,2,4]thiadiazin-2-yl)-2-(6-fluoro-2,3-dimethylphenyl)propyl)-1,3,4-oxadiazol-2 (3H)-one] | < 20 | 1000 to 5000

Continued, values first:

Row | IC50 (RNR (RNR1:RNR2 1:1)) [nM] | IC50 [1] [nM] | SMILES
14 | 20 to 100 | 10000 to 50000 | Cc1ccc(F)c([C@@H](C)[C@@H](c2n[nH]c(=O)o2)N2CN(C3CNC3)c3cc(Cl)ccc3S2(=O)=O)c1C [Example 57, 5-((1S,2R)-1-(4-(azetidin-3-yl)-6-chloro-1,1-dioxido-3,4-dihydro-2H-benzo[e][1,2,4]thiadiazin-2-yl)-2-(6-fluoro-2,3-dimethylphenyl)propyl)-1,3,4-oxadiazol-2 (3H)-one]
15 | 20 to 100 | 10000 to 50000 | Cc1ccc(F)c([C@@H](C)[C@@H](c2n[nH]c(=O)o2)N2CN([C@@H]3CCNC3)c3cc(Cl)ccc3S2(=O)=O)c1C [Example 58, 5-((1S,2R)-1-(6-chloro-1,1-dioxido-4-((R)-pyrrolidin-3-yl)-3,4-dihydro-2H-benzo[e][1,2,4]thiadiazin-2-yl)-2-(6-fluoro-2,3-dimethylphenyl)propyl)-1,3,4-oxadiazol-2 (3H)-one]
16 | < 20 | 5000 to 10000 | Cc1ccc(F)c([C@@H](C)[C@@H](c2n[nH]c(=O)o2)N2CN([C@H]3CCNC3)c3cc(Cl)ccc3S2(=O)=O)c1C [Example 59, 5-((1S,2R)-1-(6-chloro-1,1-dioxido-4-((S)-pyrrolidin-3-yl)-3,4-dihydro-2H-benzo[e][1,2,4]thiadiazin-2-yl)-2-(6-fluoro-2,3-dimethylphenyl)propyl)-1,3,4-oxadiazol-2 (3H)-one]
17 | 100 to 1000 | 10000 to 50000 | Cc1ccc(F)c([C@@H](C)[C@@H](c2n[nH]c(=O)o2)N2CN(C)c3c(ccc(Cl)c3CN3CCCCC3)S2(=O)=O)c1C [Example 61, 5-((1S,2R)-1-(6-chloro-4-methyl-1,1-dioxido-5-(piperidin-1-ylmethyl)-3,4-dihydro-2H-benzo[e][1,2,4]thiadiazin-2-yl)-2-(6-fluoro-2,3-dimethylphenyl)propyl)-1,3,4-oxadiazol-2 (3H)-one]
18 | < 20 | ≤ 1000 | Cc1ccc(F)c([C@@H](C)[C@@H](c2n[nH]c(=O)o2)N2CN(C[C@@H]3CCCO3)c3cc(Cl)ccc3S2(=O)=O)c1C [Example 62, 5-((1S,2R)-1-(6-chloro-1,1-dioxido-4-(((S)-tetrahydrofuran-2-yl)methyl)-3,4-dihydro-2H-benzo[e][1,2,4]thiadiazin-2-yl)-2-(6-fluoro-2,3-dimethylphenyl)propyl)-1,3,4-oxadiazol-2 (3H)-one]
19 | < 20 | ≤ 1000 | COCCN1CN([C@H](c2n[nH]c(=O)o2)[C@H](C)c2c(F)ccc(C)c2C)S(=O)(=O)c2ccc(Cl)nc21 [Example 63, 5-((1S,2R)-1-(6-chloro-4-(2-methoxyethyl)-1,1-dioxido-3,4-dihydro-2H-pyrido[2,3-e][1,2,4]thiadiazin-2-yl)-2-(6-fluoro-2,3-dimethylphenyl)propyl)-1,3,4-oxadiazol-2 (3H)-one]
